Paper PMC9774128, “New Insights into the Mechanism of Antibacterial Action of Synthetic Peptide Mo-CBP3-PepI against Klebsiella pneumoniae” (Antibiotics, 2022)

How the values were obtained:
[1] = tested on: L929 (murine fibroblasts); experiment: Cytotoxicity MTT assay; format: cell-based, mice; details: peptide 1 mg mL^−1, MMS 4 × 10^−5 M, absorbance 595 nm, three independent experiments
Method: (§1) The cytotoxicity assay was assessed by measuring the ability of live cells to convert a yellow dye, 3-(4,5-dimethyl-2-thiozolyl)-2,5-diphenyl-2H-tetrazolium bromide (MTT), to formazan. The cell lines used were L929 (murine fibroblasts, ATCC number CCL-1), MRC-5 (human lung fibroblasts, ATCC number CCL-171), and HaCaT (human keratinocytes) following the methodology described by Souza et al.. Cells were treated with Mo-CBP3-PepI at 1 mg mL^−1. The alkylating agent methyl methanesulfonate (MMS) at 4 × 10^−5 M was used as the positive control. The MTT formazan product was dissolved in 150 µL of DMSO, and the absorbance was measured using a multiplate reader (Spectra Count, Packard, Mississauga, ON, Canada). The drug effect was quantified as the percentage of control absorbance of the reduced dye at 595 nm.

[2] = tested on: MRC-5 (human lung fibroblasts); experiment: Cytotoxicity MTT assay; format: cell-based; details: peptide 1 mg mL^−1, MMS 4 × 10^−5 M, absorbance 595 nm, three independent experiments
Method: as §1

[3] = tested on: HaCaT (human keratinocytes); experiment: Cytotoxicity MTT assay; format: cell-based; details: peptide 1 mg mL^−1, MMS 4 × 10^−5 M, absorbance 595 nm, three independent experiments
Method: as §1

L929 cells [4] = experiment: Morphological analysis of apoptotic cells (AO/EB staining); format: cell-based, mice; details: peptide 1 mg mL^−1, MMS 4 × 10^−5 M, 24 h
Method: (§2) For this assay, the concentration of peptides was 1 mg mL^−1. […] Peptides and control solutions were incubated as described above. Cells with the morphological characteristics of apoptosis, such as apoptotic bodies, peripheral condensation of chromatin, fragmented nucleus, and small cell volume, were evaluated after 24 h of treatment, either with controls or peptides. The evaluation was executed using acridine orange (AO)/ethidium bromide (EB) staining assay. A total of 50 µL of the cell suspension was mixed with 1 µL of the staining solution (100 µg/mL AO + 100 µg/mL EB in PBS) and spread on a slide, where 300 cells were counted per data point.

L929 cells [5] = experiment: Alkaline comet assay (DNA damage); format: cell-based, mice; details: MMS 4 × 10^−5 M, 24 h
Method: (§3) For this assay, MMS at 4 × 10^−5 M was used as the positive control for DNA damage, and peptides were assayed at 1 mg mL^−1. The standard alkaline comet assay (single-cell gel electrophoresis) after treatment (24 h). Cells were washed with ice-cold PBS, trypsinized, and resuspended in a complete medium. […] Afterward, the slides were placed in a horizontal electrophoresis unit and incubated with fresh buffer solution (0.3 M NaOH, 0.001 M EDTA, pH 13.0) at 4 °C for 20 min to allow DNA to unwind and the expression of alkali-labile sites. Electrophoresis was conducted for 20 min at 25 V ([…]). All the above steps were performed in the dark to prevent additional DNA damage. Slides were neutralized (0.4 M Tris, pH 7.5) and stained using 20 µg mL of ethidium bromide. Three hundred cells (100 cells from each of the three replicate slides for each treatment) were selected, coded, and blindly analyzed for DNA migration. These cells were visually scored according to tail length into five classes: • Class 0: undamaged, without a tail; • Class 1: with a tail shorter than the diameter of the head nucleus; • Class 2: with tail length 1–2× the diameter of the head; • Class 3: with a tail longer than 2× the diameter of the head; • Class 4: comets with no heads. The index of damage (ID) value was calculated for each sample. […]

MRC-5 cells [6] = experiment: Morphological analysis of apoptotic cells (AO/EB staining); format: cell-based, human; details: peptide 1 mg mL^−1, MMS 4 × 10^−5 M, 24 h
Method: as §2

HaCaT cells [7] = experiment: as above; format: cell-based, human; details: peptide 1 mg mL^−1, MMS 4 × 10^−5 M, 24 h
Method: as §2

MRC-5 cells [8] = experiment: Alkaline comet assay (DNA damage); format: cell-based, human; details: peptide 1 mg mL^−1, MMS 4 × 10^−5 M, 24 h
Method: as §3

HaCaT cells [9] = experiment: Alkaline comet assay (DNA damage); format: cell-based, human; details: peptide 1 mg mL^−1, MMS 4 × 10^−5 M, 24 h
Method: as §3

COS(C)(=O)=O [MMS, methyl methanesulfonate]
cell viability (MTT) [1]: death of all cells
cell viability (MTT) [2]: death of all cells
cell viability (MTT) [3]: death of all cells
cell morphology / apoptosis (L929 cells [4]): severe damage to DNA and nuclei structure
DNA damage (comet assay) (L929 cells [5]): completely damaged DNA
cell morphology / apoptosis (MRC-5 cells [6]): severe damage to DNA and nuclei structure
cell morphology / apoptosis (HaCaT cells [7]): severe damage to DNA and nuclei structure
DNA damage (comet assay) (MRC-5 cells [8]): completely damaged DNA
DNA damage (comet assay) (HaCaT cells [9]): completely damaged DNA
